According to patent publication EP3785696A1, “COSMETIC USE OF AROMATIC FORMAMIDINE DERIVATIVES” (B.R.A.I.N. Biotechnology Research And Information Network AG, priority 2019, dated 2021):

Key:
Assay type in all cases: cell-based
MC2-R = target: T1, MC2-R (Homo sapiens, UniProt Q01718); experiment: Determination of compound activity on MC2-R (antagonist testing, Fluo-4 Ca2+ fluorescence in HEK293/Gα15 cells with MC2-R and MRAP); conditions: Figure 2; 25 µM, added 10 min prior addition of ACTH (EC80)
T1 construct: MC2-R cDNA expression results in MC2-R protein NP_000520.1; expressed in transfected cells; host or cells: HEK293/Gα15 cells
Source text: HEK293 cells stably expressing the target receptor MC2-R, the accessory protein MRAP and the promiscuous murine Gα15 protein were established on basis of the above-mentioned HEK293/Gα15 cell line. These cells were further transfected with an expression vector comprising human MC2-receptor and additional MRAP (MC2-Receptor Accessory Protein) cDNA. MC2-R cDNA expression results in MC2-R protein NP_000520.1, MRAP cDNA expression results in MRAP protein NP_848932.1.
Stimulation of MC2-R with ACTH (adrenocorticotropic hormone) increases intracellular Ca^2+-concentration, inhibition of MC2-R decreases these ACTH induced Ca^2+-responses. Changes in intracellular Ca^2+-levels were measured via the Ca^2+-sensitive fluorescent dye Fluo-4 in a fluorescent plate reader.
(§1) For antagonist-testing, test compound was added to cells with a final concentration of 25 µM 10 min prior addition of ACTH (EC80). The threshold for antagonistic activity was defined in this experiment as 70% of the positive control ACTH (the EC80 value is set as 100%), and the assay was accepted as valid if the standard deviation of the ACTH signal is 10% or less.

[1] = system: MelanoDerm™ (Mattek Corp.) tissues; experiment: MelanoDerm™ assay: melanin content in reconstructed skin tissues; conditions: 336 h, 14 days of treatment, melanin content normalized on protein content, read-out: % inhibition relative to negative control
Method: Phenotypic skin lightening was assessed in reconstructed skin using MelanoDerm™ (Mattek Corp.) tissues (Figure 1).
Controls were: negative control (ultrapure water) and positive control (10 µM Ketoconazol). Test compounds were prepared in DMSO with a concentration of 10 mM and diluted in EPI-100-LLM medium (Mattek Corp.) to a final concentration of 25 µM.
MelanoDerm™ tissues were equilibrated in pre-warmed EPI-100-LLMM medium (6-Well plates, 5 ml per well) for 1 h (37°C, 5 % CO2) before treatment. Test compounds were applied systemically by addition into the culture medium. […] At the end of the treatment, tissues were analyzed via macroscopic/microscopic images and in vitro assay, for viability and for melanin content. […] Cytotoxicity was assessed using microscopic tissue images (10× magnification). Tissue viability as a result of test compound relative to negative control was determined using Cell Proliferation Reagent WST-1 (cat# 05015944001, Roche). For melanin quantitation tissues were submerged for 5 min in phosphate buffered saline (PBS, 5 ml), removed from PBS and rinsed with additional 2 ml PBS. […] All incubated samples were centrifuged at 13,000 rpm for 5 min and the optical density of the supernatant (200 µl) was measured at 490 nm. The amount of melanin (µg) from each tissue sample was determined using the melanin standard samples calibration curve. […]

MC3-R = target: T2, MC3-R (Homo sapiens, UniProt P41968); experiment: Determination of compound activity on MC3-R (antagonist testing, Fluo-4 Ca2+ fluorescence in HEK293/Gα15 cells); conditions: Figure 2; 25 µM, added 10 min prior stimulation with αMSH (EC80)
T2 construct: MC3-R cDNA expression results in MC3-R protein NP_063941.3; expressed in transfected cells; host or cells: HEK293/Gα15 cells
Source text: (§2) HEK293 cells stably expressing the target receptor MC3-R and the promiscuous murine Gα15 protein were established on basis of the above-mentioned HEK293/Gα15 cell line. These cells were further transfected with an expression vector comprising the human MC3-receptor cDNA. MC3-R cDNA expression results in MC3-R protein NP_063941.3.
Stimulation of MC3-R with αMSH increases intracellular Ca^2+-concentration, inhibition of MC3-R decreases these αMSH induced Ca^2+-responses. Changes in intracellular Ca^2+-levels were measured via the Ca^2+-sensitive fluorescent dye Fluo-4 in a fluorescent plate reader.
as §1, with “stimulation with αMSH (using EC80).” for “addition of ACTH (EC80).”, “defined” for “defined in this experiment”, “αMSH” for “ACTH”

MC1-R = target: T3, MC1-R (Homo sapiens, UniProt Q01726, A105V); experiment: Determination of compound activity on MC1-R (antagonist testing, Fluo-4 Ca2+ fluorescence in HEK293/Gα15/MC1-R cells); conditions: 25 µM
T3 construct: MC1-R cDNA expression results in the corresponding protein (NP_002377.4); expressed in transfected cells
T3 sequence (Q01726 1-317 A105V): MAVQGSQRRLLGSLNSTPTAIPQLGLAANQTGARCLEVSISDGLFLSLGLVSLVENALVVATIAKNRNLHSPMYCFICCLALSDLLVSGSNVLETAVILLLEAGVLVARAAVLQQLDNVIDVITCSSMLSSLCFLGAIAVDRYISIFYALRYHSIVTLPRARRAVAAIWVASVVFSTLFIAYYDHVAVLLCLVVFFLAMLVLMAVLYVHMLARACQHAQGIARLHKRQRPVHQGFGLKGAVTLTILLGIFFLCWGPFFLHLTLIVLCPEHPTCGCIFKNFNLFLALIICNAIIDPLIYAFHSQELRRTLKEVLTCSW
Source text: A MC1-R expressing cell line for assessing melanogenesis modulating activity was established based on engineered HEK 293 cells, stably expressing the murine G-protein Gα15 (NM_010304.3). The promiscuous Gα15 protein couples to MC1-R and therefore links receptor stimulation to Ca^2+-signaling.
To achieve a stable expression of the target receptor this HEK293/Gα15 cell line was further stably transfected with an expression vector for the human MC1-R receptor. MC1-R cDNA expression results in the corresponding protein (NP_002377.4 with an amino acid replacement at position 105 (A105V)).
HEK293 cells stably expressing the target receptor MC1-R and the promiscuous murine Gα15 protein (HEK293/Gα15/MC1-R) were established as described above. […] Changes in internal Ca^2+-concentration are measured via the Ca^2+-sensitive fluorescent dye Fluo-4 (2-{[2-(2-{5-[bis(carboxymethyl)amino]-2-methyl-phenoxy}ethoxy)-4-(2,7-difluoro-6-hydroxy-3-oxo-3H-xanthen-9-yl)phenyl](carboxymethyl)amino}acetic acid) in a fluorescence plate reader (FLEX-Station, Molecular Devices) at an excitation wavelength of 488nm and emission of 535nm.
Recombinant HEK293/Gα15/MC1-R cells were cultured in DMEM with 10% FBS, 2mM glutamine, 1,3 mg/ml geneticin and 5 µg/ml blasticidin. Cells were seeded in 96 well, poly-D-lysine coated, black well/ clear bottom fluorescence plates in medium without antibiotics. […]

MC4-R = target: T4, MC4-R (Homo sapiens, UniProt P32245); experiment: Determination of compound activity on MC4-R (antagonist testing, Fluo-4 Ca2+ fluorescence in HEK293/Gα15 cells); conditions: Figure 2; 25 µM, added 10 min prior stimulation with αMSH (EC80)
T4 construct: MC4-R cDNA expression results in MC4-R protein NP_005903.2; expressed in transfected cells; host or cells: HEK293/Gα15 cells
Source text: as §2, with “MC4-R” for “MC3-R”, “MC4-receptor” for “MC3-receptor”, “NP_005903.2.” for “NP_063941.3.”
Stimulation of MC4-R with αMSH increases intracellular Ca^2+-concentration, inhibition of MC4-R decreases these αMSH induced Ca^2+-responses. Changes in intracellular Ca^2+-levels were measured via the Ca^2+-sensitive fluorescent dye Fluo-4 in a fluorescent plate reader.
as §1, with “stimulation with αMSH (using EC80).” for “addition of ACTH (EC80).”, “defined” for “defined in this experiment”, “αMSH” for “ACTH”

MC5-R = target: T5, MC5-R (Homo sapiens, UniProt P33032); experiment: Determination of compound activity on MC5-R (antagonist testing, Fluo-4 Ca2+ fluorescence in HEK293/Gα15 cells); conditions: Figure 2; 25 µM, added 10 min prior stimulation with αMSH (EC80)
T5 construct: MC5-R cDNA expression results in MC5-R protein NP_005904.1; expressed in transfected cells; host or cells: HEK293/Gα15 cells
Source text: HEK293 cells stably expressing the target receptor MC5-R and the promiscuous murine Gα15 protein were established on the basis of the above-mentioned HEK293/Gα15 cell line. These cells were further transfected with an expression vector comprising the human MC5-receptor cDNA. MC5-R cDNA expression results in MC5-R protein NP_005904.1.
Stimulation of MC5-R with αMSH increases intracellular Ca^2+-concentration, inhibition of MC5-R decreases these αMSH induced Ca^2+-responses. Changes in intracellular Ca^2+-levels were measured via the Ca^2+-sensitive fluorescent dye Fluo-4 in a fluorescent plate reader.
as §1, with “stimulation with αMSH (using EC80).” for “addition of ACTH (EC80).”, “defined” for “defined in this experiment”, “αMSH” for “ACTH”

T2 sequence (P41968 whole entry): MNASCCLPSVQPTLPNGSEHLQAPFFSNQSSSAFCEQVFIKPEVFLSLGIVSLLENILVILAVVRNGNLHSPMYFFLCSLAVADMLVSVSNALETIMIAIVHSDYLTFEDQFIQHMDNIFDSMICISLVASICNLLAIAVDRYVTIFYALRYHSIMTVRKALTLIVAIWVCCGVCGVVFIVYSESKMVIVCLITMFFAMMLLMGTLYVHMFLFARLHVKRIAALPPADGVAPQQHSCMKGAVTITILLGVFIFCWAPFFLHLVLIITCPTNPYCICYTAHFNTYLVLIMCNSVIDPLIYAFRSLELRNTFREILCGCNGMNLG
T5 sequence (P33032 whole entry): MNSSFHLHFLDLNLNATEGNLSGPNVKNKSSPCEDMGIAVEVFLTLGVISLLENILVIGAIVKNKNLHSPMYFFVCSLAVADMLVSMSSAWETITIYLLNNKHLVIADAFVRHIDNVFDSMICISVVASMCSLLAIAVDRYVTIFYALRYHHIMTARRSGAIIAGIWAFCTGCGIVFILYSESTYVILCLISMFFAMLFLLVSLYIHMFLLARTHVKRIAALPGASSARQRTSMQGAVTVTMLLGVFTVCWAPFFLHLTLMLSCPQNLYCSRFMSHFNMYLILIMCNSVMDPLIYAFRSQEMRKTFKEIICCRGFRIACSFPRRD
T4 sequence (P32245 whole entry): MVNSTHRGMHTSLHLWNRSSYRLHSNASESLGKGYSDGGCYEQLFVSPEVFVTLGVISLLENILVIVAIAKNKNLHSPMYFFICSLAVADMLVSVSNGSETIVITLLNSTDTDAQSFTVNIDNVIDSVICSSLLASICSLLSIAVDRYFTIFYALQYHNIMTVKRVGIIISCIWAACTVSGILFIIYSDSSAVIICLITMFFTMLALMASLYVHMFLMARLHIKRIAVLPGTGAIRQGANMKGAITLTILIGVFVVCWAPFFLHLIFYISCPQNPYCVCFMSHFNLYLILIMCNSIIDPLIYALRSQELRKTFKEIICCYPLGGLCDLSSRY
T1 sequence (Q01718 whole entry): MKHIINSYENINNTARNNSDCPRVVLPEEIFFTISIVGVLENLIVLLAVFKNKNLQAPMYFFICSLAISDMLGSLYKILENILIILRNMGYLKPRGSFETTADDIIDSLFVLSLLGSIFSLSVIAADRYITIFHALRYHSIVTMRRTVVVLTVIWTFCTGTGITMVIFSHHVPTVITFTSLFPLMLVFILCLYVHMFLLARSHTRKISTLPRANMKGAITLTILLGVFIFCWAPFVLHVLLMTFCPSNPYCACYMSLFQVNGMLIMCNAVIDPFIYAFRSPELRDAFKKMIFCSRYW
T1 sequence (Q8TCY5 whole entry partner): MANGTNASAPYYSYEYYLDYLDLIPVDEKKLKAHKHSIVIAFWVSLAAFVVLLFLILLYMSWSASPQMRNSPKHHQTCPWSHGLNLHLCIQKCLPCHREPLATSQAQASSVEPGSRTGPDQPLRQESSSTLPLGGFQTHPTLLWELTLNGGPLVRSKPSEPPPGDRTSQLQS

Row | activity of MC2R (MC2-R) | activity of MC3R (MC3-R) | reduce MC1R activation by (MC1-R; added 10 min prior stimulation with αMSH (EC80 set as 100%)) | reduce MC1R activation to (MC1-R; Figure 2, αMSH (EC80) signal set as 100%, remaining activation) | activity of MC4R (MC4-R) | activity of MC5R (MC5-R) | SMILES | inhibition at 25 µM ([1]; 25 µM in culture medium) | inhibition at 10 µM ([1]; 10 µM in culture medium)
1 | not significantly affected | not significantly affected | 51,3% | about 50% | not significantly affected | not significantly affected | COc1ccc(CSC(=N)N)cc1Br [Compound (III)] | -53.4% | 
2 |  |  |  |  |  |  | CC(=O)N1CCN(c2ccc(OCC3COC(Cn4ccnc4)(c4ccc(Cl)cc4Cl)O3)cc2)CC1 (centres unmarked) [Ketoconazol, reference compound] |  | -70.9%
